# Data taken from patent US7691601B2, “Medium for detecting and/or identifying of microorganisms” (priority 2003, dated 2010).
# Assays:
# [1] = tested on: Candida albicans; test: Coloration of Candida albicans colonies on detection medium; type: cell-based; parameters: key: 0=no coloration; 0.5=trace of coloration; 1=weak coloration; 2=strong coloration; conditions: stool A
# Method: (§1) Preparation of the detection medium: A volume of 250 ml of detection medium is prepared from a powdered medium having the following composition:
# (§2) Melting is carried out at 100° C., and the medium is autoclaved at 121° C. for 15 minutes. The additives are then added to the medium: Magenta C8 (500 mg/l; B-7102, BIOSYNTH, Staad, Switzerland); X-glucoside (75 mg/l; B-7250, BIOSYNTH, Staad, Switzerland); cefsulodine (10 mg/l; C 4786, Sigma, St Quentin Fallavier, France), and also the esterase inhibitor: • ? O,O-diethyl p-nitrophenyl phosphate: 5 mg/l • ? O,O-dimethyl p-nitrophenyl phosphate: 25 mg/l or • ? O,O-di-(2-chloroethyl)-O-(3-chloro-4-methylcoumarin-7-yl)phosphate: 75 mg/l
# (§3) The various selection media thus obtained are then poured into Petri dishes.
# (§4) Seeding of yeast of the Candida genus: 10 μl of stools are deposited onto a Petri dish, and this stool suspension is mixed or not mixed with 10 μl of a suspension of Candida and isolated as 3 dials on a Petri dish. Various stools and various strains of Candida genus originating from the applicant's collection are used according to this protocol. The Petri dishes are incubated at 37° C. for 24 hours.
# (§5) The appearance of a coloration at the point of deposit of the stool and in the Candida colonies is read according to a semi-quantitative scale: • 0=absence of coloration • 0.5=trace coloration • 1=weak coloration • 2=strong coloration.
# [2] = tested on: Candida krusei; test: Coloration of Candida krusei colonies on detection medium; type: cell-based; parameters: key: 0=absence of coloration; 0.5=trace coloration; 1=weak coloration; 2=strong coloration
# Method: as §1, §2, §3, §4, §5
# [3] = tested on: free esterases in stools; test: Coloration at the point of deposit of the stool on Candida detection medium; type: biochemical; parameters: key: 0=absence of coloration; 0.5=trace coloration; 1=weak coloration; 2=strong coloration; conditions: Table 4, no strain
# Method: as §1, §2, §3, §4, §5
# [4] = Colonies column read for stool without added strain, Candida detection medium; parameters: key: 0=absence of coloration; 0.5=trace coloration; 1=weak coloration; 2=strong coloration; conditions: Table 4, no strain
# Method: as §1, §2, §3, §4, §5
# [5] = tested on: Salmonella Paratyphi A; test: Coloration of Salmonella Paratyphi A colonies on detection medium; type: cell-based; parameters: key: 0=no coloration; 0.5=trace of coloration; 1=weak coloration; 2=strong coloration
# Method: as §1
# (§6) Melting is carried out at 100° C., and the medium is autoclaved at 121° C. for 15 minutes. The additives are then added to the medium: Magenta C8 (500 mg/l; B-7102, BIOSYNTH, Staad, Switzerland); X-glucoside (75 mg/l; B-7250, BIOSYNTH, Staad, Switzerland); cefsulodine (10 mg/l; C 4786, Sigma, St Quentin Fallavier, France) and various concentrations of the inhibitor O,O-diethyl p-nitrophenyl phosphate (Paraoxon® ethyl; CAS No. 311-45-5; 36186, Riedel-de Haën, St Quentin Fallavier, France; 0; 1; 5 or 10 mg/l).
# (§7) The various detection media thus obtained are then poured into Petri dishes.
# (§8) Seeding of Salmonella bacteria: 10 μl of stools are deposited onto a Petri dish, this stool suspension is mixed or not mixed with 10 μl of a suspension of Salmonella (0.5 McF) and isolated as 3 dials on a Petri dish. Various […] and various Salmonella strains originating from the applicant's collection are used according to this protocol. The Petri dishes are incubated at 37° C. for 24 hours. The appearance of a coloration at the point of deposit of the stool (“deposit” column) and at the Salmonella colony (“colony” column) is read according to a semi-quantitative scale: • 0=no coloration • 0.5=trace of coloration • 1=weak coloration • 2=strong coloration The results obtained are given in Table 1.
# (§9) Preparation of the detection medium: 250 ml of the medium of Example 1, in which the O,O-diethyl p-nitrophenyl phosphate is replaced with various concentrations of O,O-di-(2-chloroethyl)-O-(3-chloro-4-methylcoumarin-7-yl)phosphate (Haloxon®; CAS No. 321-55-1; R276995, Sigma, St Quentin Fallavier, France; 0; 1; 10; 100 or 1000 mg/l), are prepared according to the method of Example 1.
# as §3
# (§10) Seeding of Salmonella bacteria: The Petri dishes are inoculated, incubated and read as in Example 1.
# [6] = tested on: Salmonella bacteria; test: Enzymes originating from the bacteria (Salmonella colonies), overall statement; type: cell-based; conditions: summary in words
# Method: as §8, §9, §3, §10
# [7] = tested on: Candida dubliniensis; test: Coloration of Candida dubliniensis colonies on detection medium; type: cell-based; parameters: key: 0=no coloration; 0.5=trace of coloration; 1=weak coloration; 2=strong coloration
# Method: as §1, §2, §3, §4, §5
# [8] = tested on: Salmonella Typhi; test: Coloration of Salmonella Typhi colonies on detection medium; type: cell-based; parameters: key: 0=no coloration; 0.5=trace of coloration; 1=weak coloration; 2=strong coloration
# Method: as §1, §6, §7, §8
# as §6, with “O,O-dimethyl” for “O,O-diethyl”, “methyl;” for “ethyl;”, “950-35-6;” for “311-45-5; 36186,”, “5, 10, 25” for “0; 1; 5 or 10”
# as §10, §9, §3
# [9] = tested on: Candida dubliniensis; test: Coloration of Candida dubliniensis colonies on detection medium; type: cell-based; parameters: key: 0=absence of coloration; 0.5=trace coloration; 1=weak coloration; 2=strong coloration; conditions: Table 4, 5 mg/l
# Method: as §1, §2, §3, §4, §5
compound,measurement,setting,value
"Cc1c(Cl)c(=O)oc2cc(OP(=O)(OCCCl)OCCCl)ccc12 [O,O-di-(2-chloroethyl)-O-(3-chloro-4-methylcoumarin-7-yl) phosphate]",Colonies coloration,"[1]; Table 4, 75 mg/l",1
same,Colonies coloration,"[2]; Table 4, 75 mg/l, stool A",0.5
same,Colonies coloration,"[2]; Table 4, 75 mg/l, stool B",0.5
same,Deposit coloration,"[3]; 75 mg/l, stool A",0
same,Deposit coloration,"[3]; 75 mg/l, stool B",0
same,Colonies coloration,"[4]; 75 mg/l, stool A",0
same,Colonies coloration,"[4]; 75 mg/l, stool B",0
same,Colonies coloration,"[5]; Table 3, 1 mg/l, stool A",2
same,Colonies coloration,"[5]; Table 3, 1 mg/l, stool B",2
same,Colonies coloration,"[5]; Table 3, 10 mg/l, stool A",2
same,Colonies coloration,"[5]; Table 3, 10 mg/l, stool B",2
same,Colonies coloration,"[5]; Table 3, 100 mg/l, stool A",1
same,Colonies coloration,"[5]; Table 3, 100 mg/l, stool B",1
same,Colonies coloration,"[5]; Table 3, 1000 mg/l, stool A",0.5
same,Colonies coloration,"[5]; Table 3, 1000 mg/l, stool B",0.5
same,Enzymes originating from the bacteria,[6],not inhibited
same,Colonies coloration,"[7]; Table 4, 75 mg/l, stool A",1
same,Colonies coloration,"[7]; Table 4, 75 mg/l, stool B",1
same,Colonies coloration,"[8]; Table 3, 1 mg/l, stool A",1
same,Colonies coloration,"[8]; Table 3, 1 mg/l, stool B",1
same,Colonies coloration,"[8]; Table 3, 10 mg/l, stool A",1
same,Colonies coloration,"[8]; Table 3, 10 mg/l, stool B",1
same,Colonies coloration,"[8]; Table 3, 100 mg/l, stool A",1
same,Colonies coloration,"[8]; Table 3, 100 mg/l, stool B",1
same,Colonies coloration,"[8]; Table 3, 1000 mg/l, stool A",1
same,Colonies coloration,"[8]; Table 3, 1000 mg/l, stool B",1
"CCOP(=O)(OCC)Oc1ccc([N+](=O)[O-])cc1 [O,O-diethyl p-nitrophenyl phosphate]",Colonies coloration,"[1]; Table 4, 5 mg/l",1
same,Colonies coloration,"[2]; Table 4, 5 mg/l, stool A",0.5
same,Colonies coloration,"[2]; Table 4, 5 mg/l, stool B",0.5
same,Deposit coloration,"[3]; 5 mg/l, stool A",0
same,Deposit coloration,"[3]; 5 mg/l, stool B",0
same,Colonies coloration,"[4]; 5 mg/l, stool A",0
same,Colonies coloration,"[4]; 5 mg/l, stool B",0
same,Colonies coloration,"[5]; Table 1, 1 mg/l, stool A",1
same,Colonies coloration,"[5]; Table 1, 1 mg/l, stool B",1
same,Colonies coloration,"[5]; Table 1, 5 mg/l, stool A",1
same,Colonies coloration,"[5]; Table 1, 5 mg/l, stool B",1
same,Colonies coloration,"[5]; Table 1, 10 mg/l, stool A",1
same,Colonies coloration,"[5]; Table 1, 10 mg/l, stool B",1
same,Colonies coloration,[9]; stool A,0.5
same,Colonies coloration,[9]; stool B,0.5
same,Colonies coloration,"[8]; Table 1, 1 mg/l, stool A",1
same,Colonies coloration,"[8]; Table 1, 1 mg/l, stool B",1
same,Colonies coloration,"[8]; Table 1, 5 mg/l, stool A",1
same,Colonies coloration,"[8]; Table 1, 5 mg/l, stool B",1
same,Colonies coloration,"[8]; Table 1, 10 mg/l, stool A",1
same,Colonies coloration,"[8]; Table 1, 10 mg/l, stool B",1
"COP(=O)(OC)Oc1ccc([N+](=O)[O-])cc1 [O,O-dimethyl p-nitrophenyl phosphate]",Colonies coloration,"[1]; Table 4, 25 mg/l",1
same,Colonies coloration,"[2]; Table 4, 25 mg/l, stool A",0.5
same,Colonies coloration,"[2]; Table 4, 25 mg/l, stool B",0.5
same,Deposit coloration,"[3]; 25 mg/l, stool A",0
same,Deposit coloration,"[3]; 25 mg/l, stool B",0
same,Colonies coloration,"[4]; 25 mg/l, stool A",0
same,Colonies coloration,"[4]; 25 mg/l, stool B",0
same,Colonies coloration,"[7]; Table 4, 25 mg/l, stool A",1
same,Colonies coloration,"[7]; Table 4, 25 mg/l, stool B",1
same,Colonies coloration,"[8]; Table 2, 5 mg/l, stool C",0.5
same,Colonies coloration,"[8]; Table 2, 5 mg/l, stool D",0.5
same,Colonies coloration,"[8]; Table 2, 10 mg/l, stool C",1
same,Colonies coloration,"[8]; Table 2, 10 mg/l, stool D",0.5
same,Colonies coloration,"[8]; Table 2, 25 mg/l, stool C",0.5
same,Colonies coloration,"[8]; Table 2, 25 mg/l, stool D",0.5
